ChEMBL document CHEMBL3526034 (Drug Metab Dispos, 2013)

Tests used:
Cytochrome P450 1A2 = target: T1, Cytochrome P450 1A2 (Homo sapiens, UniProt P05177); assay: Metabolism-dependent inhibition of CYP1A2 in human liver microsomes using phenacetin as substrate preincubated for 20 mins with NADPH prior to initiation of reaction with probe substrate by HPLC analysis; assay type: ADME
T1 sequence (P05177 whole entry): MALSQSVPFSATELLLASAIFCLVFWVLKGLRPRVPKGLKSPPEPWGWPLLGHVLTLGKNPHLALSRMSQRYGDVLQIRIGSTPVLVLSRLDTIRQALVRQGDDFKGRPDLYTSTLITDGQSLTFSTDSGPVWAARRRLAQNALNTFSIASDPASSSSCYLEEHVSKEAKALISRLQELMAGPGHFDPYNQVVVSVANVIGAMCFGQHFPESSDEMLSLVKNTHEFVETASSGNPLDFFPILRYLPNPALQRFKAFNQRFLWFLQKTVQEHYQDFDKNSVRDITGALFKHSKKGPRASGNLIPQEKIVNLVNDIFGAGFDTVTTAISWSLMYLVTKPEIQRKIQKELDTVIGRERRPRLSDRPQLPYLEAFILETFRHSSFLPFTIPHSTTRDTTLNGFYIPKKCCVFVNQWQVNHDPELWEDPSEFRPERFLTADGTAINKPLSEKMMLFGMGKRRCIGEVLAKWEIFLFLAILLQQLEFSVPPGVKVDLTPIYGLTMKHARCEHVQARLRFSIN

[1] = target: T2, Broad substrate specificity ATP-binding cassette transporter ABCG2 (Homo sapiens, UniProt Q9UNQ0); assay: Inhibition of BCRP (unknown origin) expressed in MDCK2 cells assessed as basolateral to apical transport of [14C]cimetidine at 100 uM after 90 mins by liquid scintillation counting analysis; assay type: ADME, cell-based; conditions: mdck-ii, 1.5 h
T2 sequence (Q9UNQ0 whole entry): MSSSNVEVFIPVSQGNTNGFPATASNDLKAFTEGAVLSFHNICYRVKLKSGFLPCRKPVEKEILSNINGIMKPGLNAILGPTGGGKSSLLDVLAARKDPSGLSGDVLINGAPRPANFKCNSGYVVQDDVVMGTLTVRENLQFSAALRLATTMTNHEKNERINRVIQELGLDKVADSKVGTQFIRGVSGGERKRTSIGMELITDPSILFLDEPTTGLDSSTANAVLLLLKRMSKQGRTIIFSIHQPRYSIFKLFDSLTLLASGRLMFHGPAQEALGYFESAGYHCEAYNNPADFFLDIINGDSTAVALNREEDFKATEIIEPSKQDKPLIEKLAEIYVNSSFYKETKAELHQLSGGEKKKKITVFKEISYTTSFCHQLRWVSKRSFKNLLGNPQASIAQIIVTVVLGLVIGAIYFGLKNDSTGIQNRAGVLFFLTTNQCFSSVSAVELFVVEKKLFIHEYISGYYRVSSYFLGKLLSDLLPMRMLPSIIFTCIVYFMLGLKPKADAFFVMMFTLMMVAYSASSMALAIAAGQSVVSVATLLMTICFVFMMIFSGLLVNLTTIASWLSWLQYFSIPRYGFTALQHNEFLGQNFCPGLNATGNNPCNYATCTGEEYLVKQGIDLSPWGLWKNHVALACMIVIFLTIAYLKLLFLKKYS

[2] = target: Solute carrier organic anion transporter family member 1B1 (Homo sapiens, UniProt Q9Y6L6); assay: Inhibition of human OATP1B1 expressed in CHO cells using [3H]estradiol 17beta-D-glucuronide as substrate by liquid scintillation counting analysis; assay type: ADME, cell-based
Solute carrier organic anion transporter family member 1B1, sequence (Q9Y6L6 whole entry): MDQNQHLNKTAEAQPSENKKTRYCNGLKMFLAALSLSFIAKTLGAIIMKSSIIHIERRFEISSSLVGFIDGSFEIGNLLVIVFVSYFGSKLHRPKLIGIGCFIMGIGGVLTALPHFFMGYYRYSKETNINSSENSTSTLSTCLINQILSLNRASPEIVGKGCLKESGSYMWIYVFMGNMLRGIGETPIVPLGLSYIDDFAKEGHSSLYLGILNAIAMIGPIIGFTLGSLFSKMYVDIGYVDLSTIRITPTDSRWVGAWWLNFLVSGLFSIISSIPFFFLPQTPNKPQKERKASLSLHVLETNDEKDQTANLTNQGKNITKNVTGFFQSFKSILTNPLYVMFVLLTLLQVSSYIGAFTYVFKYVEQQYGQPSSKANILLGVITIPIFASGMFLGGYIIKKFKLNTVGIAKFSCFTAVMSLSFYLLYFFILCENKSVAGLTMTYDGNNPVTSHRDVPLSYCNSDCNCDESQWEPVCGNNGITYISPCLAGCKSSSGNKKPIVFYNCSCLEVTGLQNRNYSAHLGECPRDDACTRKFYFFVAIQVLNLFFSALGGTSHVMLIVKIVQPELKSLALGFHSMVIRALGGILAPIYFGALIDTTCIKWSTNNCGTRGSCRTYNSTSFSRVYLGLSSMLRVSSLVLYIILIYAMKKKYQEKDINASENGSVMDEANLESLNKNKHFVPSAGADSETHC

Liver microsome [3] = assay: Drug metabolism in UDPGA-fortified human liver microsomes assessed as DTG glucuronide metabolite ((2S,3S,4S,5R,6S)-6-((4R,12aS)-9-(2,4-difluorobenzylcarbamoyl)-4-methyl-6,8-dioxo-3,4,6,8,12,12a-hexahydro-2H-[1,3]oxazino[3,2-d]pyrido[1,2-a]pyrazin-7-yloxy)-3,4,5-trihydroxytetrahydro-2H-pyran-2-carboxylic acid) formation at 16 uM treated for 4 hrs by radio-HPLC analysis; assay type: ADME
CYP3A4 = CYP3A4 (Homo sapiens, UniProt P08684); assay: Inhibition of CYP3A4 in human liver microsomes using nifedipine as substrate at 100 uM preincubated for 20 mins with substrate prior to initiation of reaction with NADPH by HPLC analysis; assay type: ADME; conditions: probe nifedipine
CYP3A4, sequence (P08684 whole entry): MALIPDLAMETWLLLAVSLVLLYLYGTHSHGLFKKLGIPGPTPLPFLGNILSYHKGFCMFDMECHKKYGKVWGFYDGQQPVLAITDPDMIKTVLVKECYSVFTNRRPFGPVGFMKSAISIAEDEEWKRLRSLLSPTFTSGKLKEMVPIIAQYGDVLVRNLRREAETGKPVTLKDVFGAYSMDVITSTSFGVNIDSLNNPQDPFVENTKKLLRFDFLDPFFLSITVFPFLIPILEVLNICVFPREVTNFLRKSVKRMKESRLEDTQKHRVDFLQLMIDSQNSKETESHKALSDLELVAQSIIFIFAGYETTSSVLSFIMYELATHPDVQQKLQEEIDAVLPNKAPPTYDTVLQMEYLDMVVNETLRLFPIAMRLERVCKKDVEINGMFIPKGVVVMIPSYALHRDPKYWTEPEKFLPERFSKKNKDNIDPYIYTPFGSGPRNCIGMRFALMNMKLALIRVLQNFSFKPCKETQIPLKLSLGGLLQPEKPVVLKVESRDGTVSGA

BCRP (ABCG2) [4] = target: T3, BCRP (ABCG2) (Homo sapiens, UniProt Q9UNQ0); assay: Activity at human BCRP expressed in MDCK2 cells assessed as apical to basolateral mass balance at 3 uM by liquid scintillation counting analysis in presence of 3 uM P-gp and BCRP inhibitor GF120918; assay type: ADME, cell-based, MDCK-II; conditions: with GF120918 (P-gp and BCRP inhibitor), read-out: Activity
T3 sequence (Q9UNQ0 whole entry): T2 sequence (Q9UNQ0 whole entry)

[5] = target: UDP-glucuronosyltransferase 2B7 (Homo sapiens, UniProt P16662); assay: Inhibition of human recombinant UGT2B7 expressed in supersomes assessed as 7-HFC glucuronidation up to 100 uM by fluoresence analysis; assay type: ADME; conditions: recombinant enzyme
UDP-glucuronosyltransferase 2B7, sequence (P16662 whole entry): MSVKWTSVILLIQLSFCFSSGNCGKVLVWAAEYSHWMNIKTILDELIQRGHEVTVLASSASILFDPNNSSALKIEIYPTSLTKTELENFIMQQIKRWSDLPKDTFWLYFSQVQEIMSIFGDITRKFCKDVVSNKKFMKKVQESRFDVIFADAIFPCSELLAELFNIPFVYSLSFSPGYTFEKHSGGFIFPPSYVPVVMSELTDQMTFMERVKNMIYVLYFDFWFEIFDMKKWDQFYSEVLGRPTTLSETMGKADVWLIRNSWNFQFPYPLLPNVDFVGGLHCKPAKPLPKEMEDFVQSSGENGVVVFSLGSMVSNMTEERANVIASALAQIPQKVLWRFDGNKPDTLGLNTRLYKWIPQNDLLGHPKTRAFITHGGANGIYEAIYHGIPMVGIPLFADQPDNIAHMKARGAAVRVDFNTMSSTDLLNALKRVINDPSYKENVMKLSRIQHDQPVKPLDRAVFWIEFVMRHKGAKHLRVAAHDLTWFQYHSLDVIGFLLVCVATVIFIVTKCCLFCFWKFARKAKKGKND

Cytochrome P450 2A6 = Cytochrome P450 2A6 (Homo sapiens, UniProt P11509); assay: Inhibition of CYP2A6 in human liver microsomes using coumarin as substrate preincubated for 20 mins with substrate prior to initiation of reaction with NADPH by HPLC analysis; assay type: ADME
Cytochrome P450 2A6, sequence (P11509 whole entry): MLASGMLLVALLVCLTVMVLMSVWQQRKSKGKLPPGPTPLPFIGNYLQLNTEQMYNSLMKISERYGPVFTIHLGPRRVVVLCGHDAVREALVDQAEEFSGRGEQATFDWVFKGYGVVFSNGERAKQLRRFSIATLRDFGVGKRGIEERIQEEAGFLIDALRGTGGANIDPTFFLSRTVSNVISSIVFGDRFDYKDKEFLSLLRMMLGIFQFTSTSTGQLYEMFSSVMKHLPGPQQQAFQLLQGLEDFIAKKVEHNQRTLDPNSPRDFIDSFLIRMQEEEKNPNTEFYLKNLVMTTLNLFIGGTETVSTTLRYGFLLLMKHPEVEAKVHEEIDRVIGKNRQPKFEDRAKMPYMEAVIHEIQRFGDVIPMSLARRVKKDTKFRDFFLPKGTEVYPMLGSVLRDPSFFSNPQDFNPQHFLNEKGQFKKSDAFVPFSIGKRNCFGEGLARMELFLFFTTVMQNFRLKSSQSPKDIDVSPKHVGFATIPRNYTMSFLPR

BCRP (ABCG2) [6] = target: T3, BCRP (ABCG2); assay: Activity at human BCRP expressed in MDCK2 cells assessed as apical to basolateral mass balance at 3 uM by liquid scintillation counting analysis; assay type: ADME, cell-based, MDCK-II; conditions: read-out: Activity
Liver microsome [7] = assay: (§1) Drug metabolism in NADPH-fortified human liver microsomes assessed as metabolite M3 ((4R,12aS)-N-((3,5-difluorophenyl)(hydroxy)methyl)-7-hydroxy-4-methyl-6,8-dioxo-3,4,6,8,12,12a-hexahydro-2H-[1,3]oxazino[3,2-d]pyrido[1,2-a]pyrazine-9-carboxamide) formation at 5 uM after 120 mins treated 5 mins after selective CYP3A4 inhibitor azamulin addition by radio-HPLC analysis; assay type: ADME
[8] = target: T2, Broad substrate specificity ATP-binding cassette transporter ABCG2; assay: Inhibition of human BCRP; assay type: ADME
[9] = target: Solute carrier family 22 member 1 (Homo sapiens, UniProt O15245); assay: Inhibition of human OCT1 expressed in HEK293 cells using [14C]metformin as substrate at 10 uM after 10 mins by liquid scintillation counting analysis; assay type: ADME, cell-based; conditions: hek293, 10 min
Solute carrier family 22 member 1, sequence (O15245 whole entry): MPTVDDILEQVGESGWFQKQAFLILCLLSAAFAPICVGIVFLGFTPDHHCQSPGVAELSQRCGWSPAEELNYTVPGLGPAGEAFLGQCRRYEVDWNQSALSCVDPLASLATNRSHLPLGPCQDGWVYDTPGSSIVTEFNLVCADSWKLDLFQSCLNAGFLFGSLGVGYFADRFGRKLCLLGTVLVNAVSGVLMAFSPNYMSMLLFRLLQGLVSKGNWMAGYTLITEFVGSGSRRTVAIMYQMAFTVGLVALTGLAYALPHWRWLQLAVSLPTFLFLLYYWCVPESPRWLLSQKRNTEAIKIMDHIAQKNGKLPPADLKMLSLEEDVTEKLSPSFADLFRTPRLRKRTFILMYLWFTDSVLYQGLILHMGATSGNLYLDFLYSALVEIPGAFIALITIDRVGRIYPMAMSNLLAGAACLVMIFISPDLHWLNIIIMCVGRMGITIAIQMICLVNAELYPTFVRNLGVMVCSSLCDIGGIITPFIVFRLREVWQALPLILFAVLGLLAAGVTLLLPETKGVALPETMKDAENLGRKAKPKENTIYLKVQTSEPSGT

[10] = Drug excretion in human feces at 20 mg, po; assay type: ADME, tissue-based; conditions: faeces, read-out: Drug excretion
Cytochrome P450 2D6 [11] = target: T4, Cytochrome P450 2D6 (Homo sapiens, UniProt P10635); assay: Metabolism-dependent inhibition of CYP2D6 in human liver microsomes using bufuralol as substrate preincubated for 20 mins with NADPH prior to initiation of reaction with probe substrate by HPLC analysis; assay type: ADME
T4 sequence (P10635 whole entry): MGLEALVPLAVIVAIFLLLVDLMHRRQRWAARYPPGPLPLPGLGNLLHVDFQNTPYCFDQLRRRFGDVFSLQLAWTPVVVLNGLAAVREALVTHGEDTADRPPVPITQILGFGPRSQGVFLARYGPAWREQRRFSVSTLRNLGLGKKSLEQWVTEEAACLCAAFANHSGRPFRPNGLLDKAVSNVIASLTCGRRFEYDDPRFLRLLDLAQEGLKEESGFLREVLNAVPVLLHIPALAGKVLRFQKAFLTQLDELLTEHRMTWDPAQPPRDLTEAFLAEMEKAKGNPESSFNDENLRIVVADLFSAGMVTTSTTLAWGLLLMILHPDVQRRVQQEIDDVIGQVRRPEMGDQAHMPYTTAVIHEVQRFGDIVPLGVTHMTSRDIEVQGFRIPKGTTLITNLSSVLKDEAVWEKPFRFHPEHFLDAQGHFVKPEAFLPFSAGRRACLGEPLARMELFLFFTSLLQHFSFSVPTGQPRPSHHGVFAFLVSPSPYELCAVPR

Liver microsome [12] = assay: as §1, with “mins” for “mins treated 5 mins after selective CYP3A4 inhibitor azamulin addition”; assay type: ADME
[13] = target: Solute carrier family 22 member 2 (Homo sapiens, UniProt O15244); assay: Inhibition of human OCT2 expressed in MDCK2 cells using [14C]metformin as substrate by liquid scintillation counting analysis; assay type: ADME, cell-based, MDCK-II
Solute carrier family 22 member 2, sequence (O15244 whole entry): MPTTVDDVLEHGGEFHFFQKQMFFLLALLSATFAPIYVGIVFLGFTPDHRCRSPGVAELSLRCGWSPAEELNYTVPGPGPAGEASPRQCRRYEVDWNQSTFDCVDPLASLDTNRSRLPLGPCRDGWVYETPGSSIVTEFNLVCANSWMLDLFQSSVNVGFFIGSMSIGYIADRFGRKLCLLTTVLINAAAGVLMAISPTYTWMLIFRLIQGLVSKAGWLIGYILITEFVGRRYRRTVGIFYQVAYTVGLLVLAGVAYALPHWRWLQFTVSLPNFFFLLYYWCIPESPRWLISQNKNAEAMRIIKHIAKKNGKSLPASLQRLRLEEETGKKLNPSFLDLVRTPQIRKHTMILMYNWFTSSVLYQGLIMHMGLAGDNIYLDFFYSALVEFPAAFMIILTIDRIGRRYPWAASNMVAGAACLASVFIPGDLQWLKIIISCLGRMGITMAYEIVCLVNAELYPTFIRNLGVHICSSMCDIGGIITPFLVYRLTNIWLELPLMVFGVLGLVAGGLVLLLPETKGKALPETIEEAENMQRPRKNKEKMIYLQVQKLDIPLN

Cytochrome P450 2D6 [14] = target: T4, Cytochrome P450 2D6; assay: Inhibition of CYP2D6 in human liver microsomes using bufuralol as substrate preincubated for 20 mins with substrate prior to initiation of reaction with NADPH by HPLC analysis; assay type: ADME
Cytochrome P450 2D6 [15] = target: T4, Cytochrome P450 2D6; assay: Drug metabolism in supersomes expressing human recombinant CYP2D6 assessed as NADPH-fortified enzyme-mediated metabolite formation at 5 uM after 120 mins by radio HPLC analysis; assay type: ADME; conditions: 2 h

For C[C@@H]1CCO[C@H]2Cn3cc(C(=O)NCc4ccc(F)cc4F)c(=O)c(O)c3C(=O)N12 [DOLUTEGRAVIR], the IC50 (Cytochrome P450 1A2) was greater than 100 µM, the “inhibition (INH)” value [1] was 50% and the IC50 [2] was greater than 100 µM. For the same molecule, the Drug metabolism (Liver microsome [3]) was “metabolite_detected”, the inhibition at 100 µM (CYP3A4) was 20% and the recovery at 3 µM (BCRP (ABCG2) [4]) was 81%. For the same molecule, the “inhibition (INH)” value [5] was “Not Active”, the IC50 (Cytochrome P450 2A6) was greater than 100 µM and the recovery at 3 µM (BCRP (ABCG2) [6]) was 81%. The Drug metabolism (Liver microsome [7]) was “metabolite_not_detected”, the IC50 [8] was 67 µM and the “inhibition (INH)” value [9] was 22%. For the same molecule, the dose excreted [10] was 3.1%, the IC50 (Cytochrome P450 2D6 [11]) was greater than 100 µM and the Drug metabolism (Liver microsome [12]) was “metabolite_detected”. The IC50 [13] was 1900 nM, the IC50 (Cytochrome P450 2D6 [14]) was greater than 100 µM and the Drug metabolism (Cytochrome P450 2D6 [15]) was “metabolite_not_detected”.
